Assay results as given in patent publication EP4717275A1, “ANTI-LUNG CANCER COMBINED DRUG AND USE THEREOF” (Gunagdong Yinzhu Pharmaceutical Technology Co., Ltd, priority 2023, dated 2024).
Several values for one entry are separate records, joined by “and”; a condition that tells them apart may be missing. Equal entries are not always repeated. Where two headings read alike, the source gives them in different places.

Experiments:
NCI-H2228 cell = experiment: CCK8 proliferation assay with combination index analysis; format: cell-based, human; details: CAI alone
Method: CCK8 method was used to evaluate the effect of the drugs towards proliferation of lung cancer cell line (NCI-H2228 cell). The cellular viability with different concentration of drug was assayed and the 50% inhibitory concentration was calculated.
Emerge NCI-H2228 cells (purchased from American Type Culture Collection (ATCC, Manassas, VA, USA)) from liquid nitrogen and thaw in a 37°C water bath. After thawing, culture cells in 1640 medium.
When cell density reached 90% confluence in culture medium, cells were digested with 0.25% trypsin and resuspended. After cell growth stabilized, cells in the logarithmic growth phase were harvested and counted using a cell counter and it was ensured that viability exceeded 85% for all cell lines.
Adjust cell concentration by diluting with culture medium. Add 100 µL of cell suspension to a 96-well plate to achieve a density of 3000 cells/well. Add 100 µL of PBS buffer to the wells around the cell-seeded wells.
Incubate the 96-well plate at 37°C, 5% CO2, and 95% humidity overnight.
Remove the cell culture plate from the incubator, aspirate the culture medium, and add the prepared drug-containing medium. Incubate at 37°C, 5% CO2, and 95% humidity for 72 hours.
Add 10 µL of CCK-8 solution to each well of the 96-well plate. Incubate the plate in the cell culture incubator for 1.5 hours. Measure the absorbance at 450 nm using a microplate reader.
Analyze data using GraphPad Prism 5.0 software. Fit the data using nonlinear S-curve regression to generate a dose-response curve and calculate the IC50 value. [formula]
The analysis of the combination index of the compound was performed using the median effect principle. The formula for the combination index of two compounds is: CI = (D)1/(Dx)1 + (D)2/(Dx)2 [formula]
Where: • (D)1---- The concentration of Compound 1 when compound 1 was used with another compound and the effect X was generated; • (D)2---- The concentration of Compound 2 when compound 2 was used with another compound and the effect X was generated; • (Dx)1---- The concentration of Compound 1 when compound 1 was used alone and the effect X was generated; • (Dx)2---- The concentration of Compound 2 when compound 2 was used alone and the effect X was generated.
The CI value enables quantitative assessment of the nature and strength of interactions between different compounds (Table 2). Interaction strength is measured using the weighted average CI (CIwt), calculated by the formula: CIwt = (CI50+2CI75+3CI90+4CI95)/10 [formula]
Where: • CI50 ---- CI value at EC50 (concentration achieving 50% effect) • CI75, CI90, and CI95 follow the same principle, representing the CI values at EC75, EC90, and EC95, respectively.
Evaluation of the combination effect: CI value is used to evaluate the combination effect, and the judgment method is shown in Table 7. Table 7 Judgment criteria of the results

[1] = system: human lung cancer NCI-H1975 xenografts; experiment: Therapeutic effect in vivo on NCI-H1975 xenografts in nude mice; set-up: species or system BALB/c Nude mice; details: PO; for Relative tumor proliferation rate(%) Day 21: %T/CRTV; for Tumor growth inhibition rate(%) Day 21: %TGITV from tumor volume vs control; for Tumor inhibition rate(%) Day 21: %TGITW from tumor weight vs control; for Tumor volume (mm^3,Mean±SEM) Day 21: QD×21, dose per group; for Relative tumor volume Day 21: RTV = Vt/V0, Mean ± SEM
Method: BALB/c Nude mice, female, 8-10 weeks old, 18-20g. […] Table 2 Experimental design of therapeutic effect of the drugs in vivo […] NCI-H1975 cells were cultured in RPMI 1640 medium supplemented with 10% FBS and maintained in a 37°C, 5% CO2 humidified incubator. Log-phase NCI-H1975 cells were harvested, resuspended in RPMI 1640 basal medium containing 50% Matrigel, and adjusted to a concentration of 2 × 10^7 cells/mL. Under aseptic conditions, 0.1 mL of the cell suspension was injected subcutaneously into the right flank of mice at a concentration of 2 × 10^6 cells/0.1 mL/mouse. […] The grouping day was designated as Day 0, and administration commenced according to animal body weight. […] Animal body weight and tumor volume were measured twice weekly throughout the experiment. Tumor length and width were measured using a digital caliper, with tumor volume estimated from these measurements. After the final weighing on Day 21, remaining animals were euthanized with CO2. Tumors were weighed, photographed, and the experiment concluded. […] Tumor growth inhibition rate (%TGITV) is calculated as: […] Relative Tumor Volume (RTV) is calculated as Vt/V0, where V0 is the tumor volume at grouping and Vt is the tumor volume at each measurement. Relative Tumor Growth Rate (%T/CRTV) is calculated as TRTV/CRTV × 100%, where TRTV is the RTV of the treatment group and CRTV is the RTV of the negative control group. Tumor growth inhibition rate (%TGITW) is calculated as: ([…] × 100%, where TWc is the average tumor weight in the negative control group and TWT is the average tumor weight in the treatment group. […] Drug-related animal mortality exceeding 20% indicates severe toxicity at that dose. All experimental data in this study are expressed as Mean ± SEM. The evaluation of the combination index (CI) of drugs relies on the following equation: […]), wherein E(A+B) is the inhibition rate of combination drug, EA and EB is the inhibition rate of drug A and drug B respectively. E(A+B) in the equation represents 'measured synergistic effect' and (EA+EB-EA×EB) is 'expected synergistic effect'. CI=0.85-1.15 indicates a mere addition of the effect of two drugs, >1.15 indicates enhancement (or synergy), and <0.85 indicates antagonism. • Combination index of tumor growth inhibition: CAI, 40mg/kg + AZD9291, 1mg/kg: 1.27; […] CAI, 40mg/kg + AZD9291, 1mg/kg: 1.20; […]

[2] = QD×21, listed as Comparative Example 2
[3] = QD×21, listed as Comparative Example 3

**Q.** With NC(=O)c1nnn(Cc2cc(Cl)c(C(=O)c3ccc(Cl)cc3)c(Cl)c2)c1N [CAI, 5-Amino-1-[3,5-dichloro-4-(4-chlorobenzoyl chloride)benzyl]-1H-1,2,3-triazole-4-benzamide] as the compound, how does the IC50 (NCI-H2228 cell; single plates 1-3, 72 hours, read-out: IC50 (CAI)) read?
**A.** 22.9 µM and 23 µM

**Q.** And the IC50 (NCI-H2228 cell; Homo sapiens, NCI-H2228, 72 h, average of 3 plates, read-out: IC50 (CAI))?
**A.** 22.8 µM

**Q.** What about the IC50 (NCI-H2228 cell; Homo sapiens, NCI-H2228, 72 h, single plates 1-3, read-out: IC50 (CAI)) of the same compound?
**A.** 22.4 µM

**Q.** What about the “Relative tumor proliferation rate(%) Day 21” value [1, 2] of the same compound?
**A.** 93.04%

**Q.** And the “Relative tumor proliferation rate(%) Day 21” value [1, 3]?
**A.** 93.23%

**Q.** And the “Tumor growth inhibition rate(%) Day 21” value ([1]; QD×21)?
**A.** 12.99%

**Q.** What about the “Tumor growth inhibition rate(%) Day 21” value [1, 3] of the same compound?
**A.** 12.33%

**Q.** And the “Tumor inhibition rate(%) Day 21” value [1, 2]?
**A.** 15.76%

**Q.** And the “Tumor inhibition rate(%) Day 21” value [1, 3]?
**A.** 7.06%

**Q.** And the “Tumor volume (mm^3,Mean±SEM) Day 21” value ([1]; listed as Comparative Example 2)?
**A.** 1536.24 ±222.57 mm^3

**Q.** And the “Tumor volume (mm^3,Mean±SEM) Day 21” value ([1]; listed as Comparative Example 3)?
**A.** 1547.91 ±221.67 mm^3

**Q.** And the “Tumor weight (g,Mean±SEM) Day 21” value [1, 2]?
**A.** 1.384 ± 0.266 g

**Q.** And the “Tumor weight (g,Mean±SEM) Day 21” value [1, 3]?
**A.** 1.527 ± 0.257 g

**Q.** What about the “Relative tumor volume Day 21” value [1, 2] of the same compound?
**A.** 10.03 +1.27

**Q.** What about the “Relative tumor volume Day 21” value [1, 3] of the same compound?
**A.** 10.05 ±1.30
